Assay results reported in PMC7335108, “Butyrate producing colonic Clostridiales metabolise human milk oligosaccharides and cross feed on mucin via conserved pathways” (Nature Communications, 2020).
“And” between values parts separate entries of the source, which are not always exact repeats. Equal values may be shown once. Values belong to the molecule of their own block, whether it stands above or below them.

How the values were obtained:
[1] = biological target: T1, RhLNBBP (Roseburia hominis, UniProt G2T0U7); set-up: isothermal titration calorimetry, single-site binding model; conditions: binder; read-out: KD (μM) ITC
T1 construct: gene RHOM_04095; signal peptide removed, cleavable His6 tag, pETM11, expressed in E. coli
T1 sequence (G2T0U7 21-454): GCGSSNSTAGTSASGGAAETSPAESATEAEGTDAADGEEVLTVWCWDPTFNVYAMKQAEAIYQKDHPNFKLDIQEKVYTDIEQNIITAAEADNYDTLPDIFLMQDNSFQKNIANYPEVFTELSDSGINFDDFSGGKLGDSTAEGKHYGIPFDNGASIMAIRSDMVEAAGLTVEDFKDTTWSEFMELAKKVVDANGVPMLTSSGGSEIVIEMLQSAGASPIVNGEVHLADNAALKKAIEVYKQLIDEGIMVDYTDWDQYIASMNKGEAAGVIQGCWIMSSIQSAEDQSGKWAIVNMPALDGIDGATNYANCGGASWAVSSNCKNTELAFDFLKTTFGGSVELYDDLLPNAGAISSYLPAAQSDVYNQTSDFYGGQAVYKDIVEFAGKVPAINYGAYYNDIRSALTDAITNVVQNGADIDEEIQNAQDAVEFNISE
Protocol: Binding of LNT, LNB, GNB, LNnT, lactose and 2′FL to RhLNBBP was measured using a Microcal ITC200 calorimeter (GE Healthcare). Titrations were performed in duplicates at 25 °C with RhLNBBP (0.1 mM) in the sample cell and 1.5 mM ligand in 10 mM sodium phosphate buffer, pH 6.5 in the syringe. A first injection of 0.4 µL was followed by 19 injections of 2 µL ligand each, separated by 180 s. Heat of dilution was determined from buffer titrations and corrected data were analysed using MicroCal Origin software v7.0. To determine binding thermodynamics a non-linear single binding model was fitted to the normalized integrated binding isotherms.

[2] = biological target: T2, RhGLnbp112 (Roseburia hominis, UniProt G2T0V2); experiment: phosphorolysis, HPAEC-PAD of Gal1P; specific activity only; type: biochemical; conditions: 50 mM sodium phosphate, 150 mM NaCl, 0.005% Triton X-100, pH 6.5, 37 °C, 2 mM substrate
T2 construct: gene RHOM_04120; cleavable His6 tag, pETM11, E. coli
T2 sequence (G2T0V2 entry or part of it): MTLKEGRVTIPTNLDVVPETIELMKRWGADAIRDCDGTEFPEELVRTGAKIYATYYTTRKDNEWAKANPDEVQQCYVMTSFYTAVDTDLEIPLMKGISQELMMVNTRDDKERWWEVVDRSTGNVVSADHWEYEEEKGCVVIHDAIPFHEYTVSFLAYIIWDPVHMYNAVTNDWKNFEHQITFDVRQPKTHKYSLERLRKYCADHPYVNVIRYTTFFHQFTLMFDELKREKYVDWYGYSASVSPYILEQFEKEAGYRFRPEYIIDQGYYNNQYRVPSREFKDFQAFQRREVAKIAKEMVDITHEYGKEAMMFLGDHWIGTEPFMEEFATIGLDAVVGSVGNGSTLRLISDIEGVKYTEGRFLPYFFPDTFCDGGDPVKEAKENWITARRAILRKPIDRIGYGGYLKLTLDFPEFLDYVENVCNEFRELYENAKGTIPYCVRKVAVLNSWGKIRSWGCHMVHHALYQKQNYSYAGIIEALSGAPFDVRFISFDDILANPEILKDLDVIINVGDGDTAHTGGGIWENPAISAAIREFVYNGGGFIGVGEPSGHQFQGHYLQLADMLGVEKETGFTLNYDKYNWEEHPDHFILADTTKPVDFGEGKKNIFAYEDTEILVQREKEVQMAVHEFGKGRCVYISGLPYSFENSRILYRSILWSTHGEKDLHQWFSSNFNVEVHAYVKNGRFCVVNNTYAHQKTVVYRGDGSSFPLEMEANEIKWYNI

[3] = biological target: T3, RiLe^a/bBP (Roseburia inulinivorans, UniProt A0ACG1Y794); set-up: surface plasmon resonance, steady state, one-site fit; conditions: binder; read-out: KD (µM) SPR
T3 construct: gene LK408_15410; signal peptide removed, cleavable His6 tag, pETM11, expressed in E. coli; amine-coupled to CM5 chip
T3 sequence (A0ACG1Y794 20-470): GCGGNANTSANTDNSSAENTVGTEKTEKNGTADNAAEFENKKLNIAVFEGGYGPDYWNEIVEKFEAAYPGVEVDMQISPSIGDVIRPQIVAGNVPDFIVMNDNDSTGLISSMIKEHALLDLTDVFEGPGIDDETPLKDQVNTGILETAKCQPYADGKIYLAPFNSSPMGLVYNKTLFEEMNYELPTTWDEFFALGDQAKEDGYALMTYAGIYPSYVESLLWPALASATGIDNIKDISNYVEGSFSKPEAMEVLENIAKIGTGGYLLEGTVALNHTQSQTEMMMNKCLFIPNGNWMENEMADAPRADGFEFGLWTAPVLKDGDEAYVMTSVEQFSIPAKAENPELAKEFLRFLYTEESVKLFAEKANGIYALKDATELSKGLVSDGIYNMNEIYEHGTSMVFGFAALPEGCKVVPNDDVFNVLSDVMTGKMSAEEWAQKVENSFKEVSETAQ
From the text: Both SBPs recognized distinct HMOs and ligands from host-glycans (Fig. 4, Supplementary Tables 2 and 3, Supplementary Fig. 7). […] The loss of the fucosyl unit at the terminal reducing GlcNAc reduced the affinity of RiLe^a/bBP about 5-fold for blood group H antigen triose type I (H triose type I) relative to Le^b tetraose. The specificity of RiLe^a/bBP is highlighted by the lack of affinity for lacto-N-neotetroase (LNnT), blood group A antigen triose (A triose), lactose and 2′-fucosyllactose (2′-FL). […] An equimolar mixture of Le^b, Le^a and H-triose type I oligomers promoted the growth of R. inulinivorans to a similar final OD600 as glucose (Fig. 1b, c and Fig. 4a). The uptake profiles of these ligands reflected the preference of RiLe^a/bBP, consistent with uptake by the associated transporter (Fig. 4). This was also in accord with the utilization of larger fucosylated HMO structures observed during growth on purified HMOs from mother’s milk (Supplementary Fig. 2a–c).

[4] = biological target: T4, RhLNBBP (Roseburia hominis, UniProt G2T0U7); experiment: isothermal titration calorimetry; type: binding; conditions: 10 mM sodium phosphate, pH 6.5, 25 °C
T4 construct: gene RHOM_04095; signal peptide removed, cleavable His6 tag, pETM11, expressed in E. coli

[5] = biological target: T5, RiGLnbp112 (Roseburia inulinivorans, UniProt A0ACG1Y7L8); experiment: phosphorolysis, HPAEC-PAD of Gal1P; specific activity only; type: biochemical; conditions: 50 mM sodium phosphate, 150 mM NaCl, 0.005% Triton X-100, pH 6.5, 37 °C, 2 mM substrate
T5 construct: gene gnpA; cleavable His6 tag, pETM11, E. coli
T5 sequence (A0ACG1Y7L8 entry or part of it): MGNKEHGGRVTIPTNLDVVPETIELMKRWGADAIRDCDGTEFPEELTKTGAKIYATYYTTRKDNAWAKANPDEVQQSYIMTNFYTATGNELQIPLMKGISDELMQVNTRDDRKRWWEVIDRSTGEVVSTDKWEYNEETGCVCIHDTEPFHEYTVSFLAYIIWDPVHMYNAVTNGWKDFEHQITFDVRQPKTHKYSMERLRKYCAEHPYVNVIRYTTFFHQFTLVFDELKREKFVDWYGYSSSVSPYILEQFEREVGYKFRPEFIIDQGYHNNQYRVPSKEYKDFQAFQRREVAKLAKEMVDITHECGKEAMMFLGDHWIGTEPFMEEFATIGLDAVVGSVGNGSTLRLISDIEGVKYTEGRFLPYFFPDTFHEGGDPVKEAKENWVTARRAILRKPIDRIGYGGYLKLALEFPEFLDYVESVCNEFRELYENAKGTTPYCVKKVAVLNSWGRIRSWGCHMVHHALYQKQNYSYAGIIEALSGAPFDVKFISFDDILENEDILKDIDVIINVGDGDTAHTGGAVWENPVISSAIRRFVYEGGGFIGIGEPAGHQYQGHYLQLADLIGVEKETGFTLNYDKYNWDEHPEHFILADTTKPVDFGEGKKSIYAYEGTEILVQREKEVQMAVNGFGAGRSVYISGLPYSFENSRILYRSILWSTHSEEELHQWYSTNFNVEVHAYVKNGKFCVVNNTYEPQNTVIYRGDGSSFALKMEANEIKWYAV

[6] = biological target: T6, RiLe^a/bBP (Roseburia inulinivorans, UniProt A0ACG1Y794); experiment: surface plasmon resonance, steady state, one-site fit; type: binding; conditions: 20 mM sodium phosphate, 150 mM NaCl, 0.005% P20, pH 6.5, 25 °C; protein immobilised on CM5 chip
T6 construct: gene LK408_15410; signal peptide removed, cleavable His6 tag, pETM11, expressed in E. coli; amine-coupled to CM5 chip

[7] = biological target: T7, RiFuc29 (Roseburia inulinivorans, UniProt A0ACG1Y7F2); experiment: product profile (TLC and/or MALDI-TOF MS); type: biochemical; conditions: 50 mM MES, 150 mM NaCl, 0.005% Triton X-100, pH 6.5, 37 °C, 16 h; alpha-(1->4)-L-fucosyl removed
T7 construct: gene LK408_15425; cleavable His6 tag, pETM11, E. coli; no signal peptide; the GH29 of the GH112/GH136 locus, not that of the GH98 locus
T7 sequence (A0ACG1Y7F2 entry or part of it): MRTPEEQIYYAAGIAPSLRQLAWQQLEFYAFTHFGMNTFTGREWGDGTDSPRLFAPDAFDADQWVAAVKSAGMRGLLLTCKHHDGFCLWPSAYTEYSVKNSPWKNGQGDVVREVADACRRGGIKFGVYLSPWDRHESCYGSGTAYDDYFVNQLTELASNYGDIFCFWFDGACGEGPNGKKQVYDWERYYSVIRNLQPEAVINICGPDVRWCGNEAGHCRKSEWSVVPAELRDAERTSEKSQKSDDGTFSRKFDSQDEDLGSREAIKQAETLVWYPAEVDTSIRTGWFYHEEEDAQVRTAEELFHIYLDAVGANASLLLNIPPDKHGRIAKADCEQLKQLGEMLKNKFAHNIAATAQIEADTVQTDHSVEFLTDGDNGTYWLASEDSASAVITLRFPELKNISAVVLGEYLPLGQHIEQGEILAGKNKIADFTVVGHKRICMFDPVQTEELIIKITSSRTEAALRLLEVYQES

[8] = biological target: T8, ErLnb136 (Eubacterium ramulus, UniProt U2PDT9); experiment: X-ray crystal structure; type: binding; conditions: SeMet-labelled protein, 1.4 Å; 25 mM LNB in cryoprotectant; active site
T8 construct: gene HMPREF0373_02965; single chain, domain I AA 7-224 and catalytic domain II AA 242-663; His6 tag, pETM11, E. coli; crystal SeMet-labelled
T8 sequence (U2PDT9 entry or part of it): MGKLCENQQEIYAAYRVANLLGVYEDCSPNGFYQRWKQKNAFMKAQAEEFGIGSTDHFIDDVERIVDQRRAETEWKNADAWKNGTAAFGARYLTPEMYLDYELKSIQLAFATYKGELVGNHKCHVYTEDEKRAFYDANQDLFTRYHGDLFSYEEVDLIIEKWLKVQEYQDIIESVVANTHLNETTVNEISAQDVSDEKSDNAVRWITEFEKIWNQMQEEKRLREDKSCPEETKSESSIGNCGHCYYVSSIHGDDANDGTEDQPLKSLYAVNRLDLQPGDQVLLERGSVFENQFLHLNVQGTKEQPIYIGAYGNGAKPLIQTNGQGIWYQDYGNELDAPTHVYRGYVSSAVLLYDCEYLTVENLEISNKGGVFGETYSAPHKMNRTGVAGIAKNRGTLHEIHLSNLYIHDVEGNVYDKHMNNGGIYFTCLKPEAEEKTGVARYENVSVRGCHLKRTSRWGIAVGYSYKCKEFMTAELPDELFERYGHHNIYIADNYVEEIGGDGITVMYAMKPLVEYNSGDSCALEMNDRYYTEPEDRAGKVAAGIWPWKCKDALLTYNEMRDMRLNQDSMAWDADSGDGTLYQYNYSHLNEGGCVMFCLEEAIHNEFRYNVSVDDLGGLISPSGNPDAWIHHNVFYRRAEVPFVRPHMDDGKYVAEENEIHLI

[9] = biological target: T9, ErLnb136II, C-terminal catalytic beta-helix domain of the GH136 lacto-N-biosidase ErLnb136 from Eubacterium … (Eubacterium ramulus DSM 15684, UniProt U2PDT9 242-663, selenomethionine in the SeMet-labelled crystal (PDB 6KQS)); experiment: crystal structure; ErLnb136 (both domains on one chain) with LNB; SeMet-labelled 1.4 Å and native 2.0 Å; sitting-drop vapor diffusion at 20 °C; conditions: both partners purified
T9 construct: C-terminal catalytic domain (AA 242-663, beta-helix fold) of ErLnb136, product of HMPREF0373_02965 of Eubacterium ramulus DSM 15684; In the crystal this domain is on ONE natural polypeptide with m3 (whole ErLnb136, cloned in pETM11 with a cleavable N- or C-terminal His6 tag); also called GH136II domain; source: E. coli B834 (DE3), SeMet-labelled, and E. coli BL21 ΔlacZ (DE3)/pRARE2, native
T9 sequence (looked up): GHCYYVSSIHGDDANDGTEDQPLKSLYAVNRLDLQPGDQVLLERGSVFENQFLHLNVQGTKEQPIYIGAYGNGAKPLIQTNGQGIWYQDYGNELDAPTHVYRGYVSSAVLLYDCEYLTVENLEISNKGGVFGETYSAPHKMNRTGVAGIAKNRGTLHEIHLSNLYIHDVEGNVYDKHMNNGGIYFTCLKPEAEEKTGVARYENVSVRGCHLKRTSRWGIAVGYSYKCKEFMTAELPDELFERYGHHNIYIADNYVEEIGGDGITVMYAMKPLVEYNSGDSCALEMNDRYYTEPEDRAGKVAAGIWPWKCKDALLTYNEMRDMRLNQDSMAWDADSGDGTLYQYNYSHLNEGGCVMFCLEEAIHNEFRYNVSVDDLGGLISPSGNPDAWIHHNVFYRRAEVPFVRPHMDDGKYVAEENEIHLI

Molecule: CC(=O)N[C@H]1C(O)O[C@H](CO)[C@H](O)[C@@H]1O[C@@H]1O[C@H](CO)[C@H](O)[C@H](O)[C@H]1O (stereo partly drawn) [GNB]
Kd [1]: 10.9 µM and 11.1 µM
phosphorolysis, HPAEC-PAD of Gal1P; specific activity only [2]: This enzyme has comparable specific activities for LNB and GNB
Kd [3]: 10.8 µM and 10.2 µM
KD [4]: shows preference to LNB followed by GNB and LNT
phosphorolysis, HPAEC-PAD of Gal1P; specific activity only [5]: (RiGLnbp112) phosphorolyzes LNB and GNB equally efficiently

Molecule: CC(=O)N[C@H]1C(O)O[C@H](CO)[C@@H](O[C@@H]2O[C@@H](C)C(O)C(O)[C@@H]2O)[C@@H]1O[C@@H]1O[C@H](CO)[C@H](O)[C@H](O)[C@H]1O (stereo partly drawn) [Le^a triose]
KD [6]: Lewis b (Le^b) tetraose and Lewis a (Le^a) triose were the preferred ligand
product profile (TLC and/or MALDI-TOF MS) [7]: complete defucosylation of putative products of RiGH136, Le^b tetraose, Le^a triose and H triose

Molecule: CC(=O)N[C@H]1C(O)O[C@H](CO)[C@@H](O)[C@@H]1O[C@@H]1O[C@H](CO)[C@H](O)[C@H](O)[C@H]1O (stereo partly drawn) [LNB]
Kd [1]: 2.64 µM and 3.12 µM
phosphorolysis, HPAEC-PAD of Gal1P; specific activity only [2]: This enzyme has comparable specific activities for LNB and GNB
Kd [3]: 6.63 µM and 6.91 µM
KD [4]: shows preference to LNB followed by GNB and LNT
phosphorolysis, HPAEC-PAD of Gal1P; specific activity only [5]: (RiGLnbp112) phosphorolyzes LNB and GNB equally efficiently
X-ray crystal structure [8]: The LNB molecule bound in the active site is recognized by ten potential hydrogen bonds

The next lines start with results.

Kd [1]: 11 µM and 9.71 µM
Molecule: CC(=O)N[C@H]1[C@H](O[C@H]2[C@@H](O)[C@@H](CO)O[C@@H](O[C@H]3[C@H](O)[C@@H](O)C(O)O[C@@H]3CO)[C@@H]2O)O[C@H](CO)[C@@H](O)[C@@H]1O[C@@H]1O[C@H](CO)[C@H](O)[C@H](O)[C@H]1O (stereo partly drawn) [LNT]
KD [4]: shows preference to LNB followed by GNB and LNT

Kd [3]: 1.77 µM and 1.75 µM
Molecule: CC(=O)N[C@H]1C(O)O[C@H](CO)[C@@H](O[C@@H]2O[C@@H](C)[C@@H](O)[C@@H](O)[C@@H]2O)[C@@H]1O[C@@H]1O[C@H](CO)[C@H](O)[C@H](O)[C@H]1O[C@@H]1O[C@@H](C)[C@@H](O)[C@@H](O)[C@@H]1O (stereo partly drawn) [Le^b tetraose]
KD [6]: Lewis b (Le^b) tetraose and Lewis a (Le^a) triose were the preferred ligand

binding result [9]: binds
B1: ErLnb136I, N-terminal domain of the GH136 lacto-N-biosidase ErLnb136 from Eubacterium ramulus (domain or fragment, Eubacterium ramulus DSM 15684, UniProt U2PDT9 7-224, looked up)
chain: NQQEIYAAYRVANLLGVYEDCSPNGFYQRWKQKNAFMKAQAEEFGIGSTDHFIDDVERIVDQRRAETEWKNADAWKNGTAAFGARYLTPEMYLDYELKSIQLAFATYKGELVGNHKCHVYTEDEKRAFYDANQDLFTRYHGDLFSYEEVDLIIEKWLKVQEYQDIIESVVANTHLNETTVNEISAQDVSDEKSDNAVRWITEFEKIWNQMQEEKRLRE
modifications: selenomethionine in the SeMet-labelled crystal (PDB 6KQS)
notes: N-terminal domain (AA 7-224, eight alpha-helices, new fold) of ErLnb136, product of HMPREF0373_02965 of Eubacterium ramulus DSM 15684; residues 180-199 are disordered in the structure; In the crystal this domain is on ONE natural polypeptide with m4 (whole ErLnb136, cloned in pETM11 with a cleavable N- or C-terminal His6 tag); The linker 225-241 is disordered; also called GH136I domain; source: …
